Where two headings read alike, the source gives them in different places.
Key:
[1] = palm of hand; 0.4 g of ethanol per kilogram of body weight orally ingested; measured 10 to 40 minutes after drinking
[2] = compared with ethanol in exhaled breath, test subject ingested 0.4 g/kg of body weight of ethanol by drinking

time after drinking at which concentration of ethanol released from the skin reached a peak value [1]: 32 min | delay until the amount of ethanol contained in skin gas peaks ([2]; collector attached to back of hand): approximately 23 minutes | delay until the amount of ethanol contained in skin gas peaks ([2]; collector attached to wrist on the palm side): approximately 18 minutes
SMILES: CCO [ethanol]

Source: patent US20210361224A1, “BIOLOGICAL GAS (VOCs) MEASURMENT DEVICE” (National University Corporation Tokyo Medical and Dental …, priority 2017, published 2021)
